# Experimental data as given in patent US20250011351A1, “[…] O-ACETYLPSILOCIN, SALTS AND SOLID STATE FORMS THEREOF” (Terran Biosciences Inc., priority 2021, published 2025).
# Assay: Humidity exposure (RH jars, hygroscopicity test; handling at ambient humidity)
# Type: physicochemical
# Experimental: Solids deliquesced within approx. 1 hour of exposure to elevated relative humidity. The sample was capped and placed in a freezer for storage.
molecule,measurement,setting,value
CC(=O)Oc1cccc2[nH]cc(CCN(C)C)c12.Cl [O-acetyl psilocin hydrochloride],time to deliquescence,open vial inside a 75% RH jar (hygroscopicity test),≤ 1 h
"CC(=O)Oc1cccc2[nH]cc(CCN(C)C)c12.O=C(O)/C=C\C(=O)O [non-crystalline maleate salt, O-acetyl psilocin maleate]",physical stability of the non-crystalline material,ambient relative humidity (50% RH in summertime),unstable
"CC(=O)Oc1cccc2[nH]cc(CCN(C)C)c12.O=P(O)(O)O [phosphate salt (Forms A+B), O-acetyl psilocin phosphate]",deliquescence,65% RH,deliquesce
same,hygroscopicity,evaluation using RH jars,low
Psilocybin Mesylate,behaviour when handled at ambient humidity,ambient humidity (~50-60%),became tacky and deliquesced
